Measured values published in US20250179077A1, “QUINAZOLINE COMPOUNDS AND USES THEREOF AS INHIBITORS OF MUTANT KRAS PROTEINS” (AMGEN INC., priority 2022, published 2025).
Like-named read-outs stand apart in the source and are kept apart here.

Legend:
[1] = molecular target: GDP-bound KRAS protein (aa 1-169), containing both G12D and C118A amino acid substitutions (Homo sapiens, UniProt P01116, C118A/G12D); assay: KRAS G12D Coupled Nucleotide Exchange Assay; assay type: biochemical
Procedure: KRAS G12D Coupled Nucleotide Exchange Assay
Following compound pre-incubation, purified SOS protein (aa 564-1049) and GTP (Roche 10106399001) were added to the assay wells and incubated for an additional 30 min. […] The assay plates were then read on a PerkinElmer EnVision Multilabel Reader, using AlphaScreen® technology, and data were analyzed using a 4-parameter logistic model to calculate IC50 values.

[2] = test system: Phosphorylation of ERK1/2 in AsPC-1 cells; assay: Phospho-ERK1/2 MSD Assay; assay type: cell-based
In short: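 Phospho-ERK1/2 was quantified by MSD whole-cell lysate immunoassay in RIPA lysates made with protease/phosphatase inhibitors. A 4-parameter logistic model gave IC50.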

[3] = molecular target: His-tagged KRAS G12D protein (Homo sapiens, UniProt P01116, G12D); assay: KRAS G12D TR-FRET Assay; assay type: binding
In short: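 His-KRAS G12D (20 nM) was preincubated with titrated compound for 30 min at RT in HEPES pH 7.4 buffer with MgCl2, 10 μM GDP. Biotin-KRPep-2d (20 nM) was then added for 1 h, followed by Eu-anti-His/streptavidin-d2 for 1 h. The 665/615 nm TR-FRET ratio was fitted 4-parameter to give IC50.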

[4] = Homo sapiens, ASPC1, 2 h, read-out: 2 h p-ERK (AsPC-1 cells), IC50, AsPC-1 cells, 2 h compound treatment
[5] = read-out: 2 h p-ERK (AsPC-1 cells), IC50, AsPC-1 cells, 2 h compound treatment

His-tagged KRAS G12D protein, sequence (P01116 1-188 isoform P01116-2 G12D): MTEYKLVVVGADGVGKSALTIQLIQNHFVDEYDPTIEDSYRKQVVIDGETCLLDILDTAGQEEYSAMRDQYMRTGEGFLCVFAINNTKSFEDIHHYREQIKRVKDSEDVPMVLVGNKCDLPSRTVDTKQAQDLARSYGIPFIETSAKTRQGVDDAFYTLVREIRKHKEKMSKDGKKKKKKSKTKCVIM
GDP-bound KRAS protein (aa 1-169), containing both G12D and C118A amino acid substitutions, sequence (P01116 1-169 isoform P01116-2 G12D/C118A): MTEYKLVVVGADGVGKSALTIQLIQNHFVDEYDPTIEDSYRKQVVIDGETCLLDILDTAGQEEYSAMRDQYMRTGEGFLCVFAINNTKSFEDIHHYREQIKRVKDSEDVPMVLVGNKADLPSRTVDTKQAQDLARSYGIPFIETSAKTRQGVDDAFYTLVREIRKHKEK

SMILES	IC50 [1]	IC50 [2, 4]	IC50 [3]	IC50 [2, 5]	IC50 ([2]; Homo sapiens, ASPC1, read-out: 2 h p-ERK (AsPC-1 cells), IC50, AsPC-1 cells, 2 h compound treatment)
C/C=C\c1c(C)cc2[nH]ncc2c1-c1c(F)cc2c(N3CCOC[C@@](C)(O)C3)nc(OC[C@@]34CCCN3C[C@H](F)C4)nc2c1F (single isomer, unassigned) [Example 104]	1 nM	30 nM	2 nM		
C[C@@H]1C[C@@H]1c1c(Cl)cc2[nH]ncc2c1-c1c(F)cc2c(N3CCOC[C@@](C)(O)C3)nc(OC[C@@]34CCCN3C[C@H](F)C4)nc2c1F (single isomer, unassigned) [Example 98]	3 nM	28 nM	7 nM		
CCc1c(F)ccc2cc(N)cc(-c3c(F)cc4c(N5CCOCC(C)(O)C5)nc(OC[C@@]56CCCN5C[C@H](F)C6)nc4c3F)c12 (single isomer, unassigned) [Example 72]	2 nM		8 nM	151 nM	
Oc1cc(-c2ccc3c(N4CCCOCC4)nc(OCC45CCCN4CCC5)nc3c2F)c2ccccc2c1 [Example 43, 4-(8-Fluoro-4-(1,4-oxazepan-4-yl)-2-((tetrahydro-1H-pyrrolizin-7a(5H)-yl)methoxy)quinazolin-7-yl)naphthalen-2-ol]	13 nM	1670 nM	22 nM		
CCc1c(F)ccc2cc(O)cc(-c3c(O)cc4c(N5CCCOCC5)nc(OC[C@@]56CCCN5C[C@H](F)C6)nc4c3F)c12 [Example 26, 7-(8-Ethyl-7-fluoro-3-hydroxynaphthalen-1-yl)-8-fluoro-2-(((2R,7aS)-2-fluorotetrahydro-1H-pyrrolizin-7a(5H)-yl)methoxy)-4-(1,4-oxazepan-4-yl)quinazolin-6-ol]	4 nM	270 nM	4 nM		
CCc1c(F)ccc2cc(N)cc(-c3c(F)cc4c(N5CCCC6(CCO6)C5)nc(OC[C@@]56CCCN5C[C@H](F)C6)nc4c3F)c12 (stereo partly drawn) [Example 75, 4-(6,8-Difluoro-2-(((2R,7aS)-2-fluorotetrahydro-1H-pyrrolizin-7a(5H)-yl)methoxy)-4-(1-oxa-6-azaspiro[3.5]nonan-6-yl)quinazolin-7-yl)-5-ethyl-6-fluoronaphthalen-2-amine]	9 nM	500 nM	154 nM		
C/C=C\c1c(Cl)cc2[nH]ncc2c1-c1c(F)cc2c(N3CCC[C@@](C)(O)C3)nc(OC[C@@]34CCCN3C[C@H](F)C4)nc2c1F [Example 119, (3R)-1-(7-(6-Chloro-5-((Z)-prop-1-en-1-yl)-1H-indazol-4-yl)-6,8-difluoro-2-(((2R,7aS)-2-fluorotetrahydro-1H-pyrrolizin-7a(5H)-yl)methoxy)quinazolin-4-yl)-3-methylpiperidin-3-ol]	11 nM		16 nM		111 nM
CCc1c(F)ccc2cc(N)cc(-c3c(F)cc4c(N5CCOCC(C)(O)C5)nc(OC[C@@]56CCCN5C[C@H](F)C6)nc4c3F)c12 (single isomer, unassigned) [Example 71]	14 nM		111 nM	1400 nM	
Cc1cc2[nH]ncc2c(-c2c(F)cc3c(N4CCC[C@](O)(CF)C4)nc(OC[C@@]45CCCN4C[C@H](F)C5)nc3c2F)c1C1CC1 (single isomer, unassigned) [Example 100]	3 nM	90 nM	4 nM		
CCc1c(F)ccc2cc(O)cc(-c3ccc4c(N5C[C@H](NC(=O)OC)CC(F)(F)C5)nc(OC[C@@]56CCCN5C[C@H](F)C6)nc4c3F)c12 [Example 5, Methyl ((R)-1-(7-(8-ethyl-7-fluoro-3-hydroxynaphthalen-1-yl)-8-fluoro-2-(((2R,7aS)-2-fluorotetrahydro-1H-pyrrolizin-7a(5H)-yl)methoxy)quinazolin-4-yl)-5,5-difluoropiperidin-3-yl)carbamate]	3 nM	303 nM	3 nM		
CCc1c(F)ccc2cc(N)cc(-c3c(F)cc4c(N5CCCC6(CNC(=O)O6)C5)nc(OC[C@@]56CCCN5C[C@H](F)C6)nc4c3F)c12 (stereo partly drawn) [Example 73, 7-(7-(3-Amino-8-ehtyl-7-fluoronaphthalen-1-yl)-6,8-difluoro-2-(((2R,7aS)-2-fluorotetrahydro-1H-pyrrolizin-7a(5H)-yl)methoxy)quinazolin-4-yl)-1-oxa-3,7-diazaspiro[4.5]decan-2-one]	1 nM	90 nM	2 nM		

Further lines, with some results ahead:

IC50 [1]	IC50 [2, 4]	IC50 [3]	IC50 [2, 5]	SMILES	IC50 ([2]; Homo sapiens, ASPC1, read-out: 2 h p-ERK (AsPC-1 cells), IC50, AsPC-1 cells, 2 h compound treatment)
5 nM	146 nM	4 nM		CCc1c(F)ccc2cc(O)cc(-c3c(Cl)cc4c(N5CCC[C@@](C)(O)C5)nc(OC[C@@]56CCCN5C[C@H](F)C6)nc4c3F)c12 [Example 25, (3R)-1-(6-Chloro-7-(8-ethyl-7-fluoro-3-hydroxynaphthalen-1-yl)-8-fluoro-2-(((2R,7aS)-2-fluorotetrahydro-1H-pyrrolizin-7a(5H)-yl)methoxy)quinazolin-4-yl)-3-methylpiperidin-3-ol]	
1 nM	5 nM	1 nM		C#Cc1cccc2cc(O)cc(-c3c(F)cc4c(N5CCC[C@@](C)(O)C5)nc(OC[C@@]56CCCN5C[C@H](F)C6)nc4c3F)c12 (single isomer, unassigned) [Example 12]	
3 nM	23 nM	3 nM		C#Cc1cccc2cc(O)cc(-c3ccc4c(N5CCC[C@@](C)(O)C5)nc(OC[C@@]56CCCN5C[C@H](F)C6)nc4c3F)c12 [Example 50, (R)-1-(7-(8-Ethynyl-3-hydroxynaphthalen-1-yl)-8-fluoro-2-(((2R,7a.S)-2-fluorotetrahydro-1H-pyrrolizin-7a(5H)-yl)methoxy)quinazolin-4-yl)-3-methylpiperidin-3-ol]	
6 nM	87 nM	10 nM		CC1CCCc2cc(O)cc(-c3ccc4c(N5CCC[C@@](C)(O)C5)nc(OC[C@@]56CCCN5C[C@H](F)C6)nc4c3F)c21 (stereo partly drawn) [Example 96, (3R)-1-(8-Fluoro-2-(((2R,7aS)-2-fluorotetrahydro-1H-pyrrolizin-7a(5H)-yl)methoxy)-7-(3-hydroxy-8-methyl-5,6,7,8-tetrahydronaphthalen-1-yl)quinazolin-4-yl)-3-methylpiperidin-3-ol]	
4 nM	21 nM	4 nM		C#Cc1c(F)ccc2cc(O)cc(-c3ccc4c(N5CCC[C@@](C)(O)C5)nc(OC[C@@]56CCCN5C[C@H](F)C6)nc4c3F)c12 [Example 47, (R)-1-(7-(8-Ethynyl-7-fluoro-3-hydroxynaphthalen-1-yl)-8-fluoro-2-(((2R,7aS)-2-fluorotetrahydro-1H-pyrrolizin-7a(5H)-yl)methoxy)quinazolin-4-yl)-3-methylpiperidin-3-ol]	
11 nM	53 nM	6 nM		CCc1c(F)ccc2cc(O)cc(-c3ccc4c(N5CCCC6(CCO6)C5)nc(OC[C@@]56CCCN5C[C@H](F)C6)nc4c3F)c12 (stereo partly drawn) [Example 40, 5-Ethyl-6-fluoro-4-(8-fluoro-2-(((2R,7aS)-2-fluorotetrahydro-1H-pyrrolizin-7a(5H)-yl)methoxy)-4-(1-oxa-6-azaspiro[3.5]nonan-6-yl)quinazolin-7-yl)naphthalen-2-ol]	
23 nM	1470 nM	23 nM		Oc1cc(-c2ccc3c(N4CCCOCC4)nc(OC[C@]45CCCN4C[C@H](F)C5)nc3c2F)c2ccccc2c1 [Example 41, 4-(8-Fluoro-2-(((2R,7aR)-2-fluorotetrahydro-1H-pyrrolizin-7a(5H)-yl)methoxy)-4-(1,4-oxazepan-4-yl)quinazolin-7-yl)naphthalen-2-ol]	
1 nM	18 nM	1 nM		CCc1c(F)ccc2cc(O)cc(-c3c(O)cc4c(N5CCC[C@@](C)(O)C5)nc(OC[C@@]56CCCN5C[C@H](F)C6)nc4c3F)c12 (single isomer, unassigned) [Example 27]	
3 nM	338 nM	4 nM		C#Cc1c(F)ccc2cccc(-c3c(F)cc4c(N5CCC[C@@](C)(O)C5)nc(OC[C@@]56CCCN5C[C@H](F)C6)nc4c3F)c12 (single isomer, unassigned) [Example 67]	
4 nM	26 nM	4 nM		CCc1c(F)ccc2cc(O)cc(-c3c(F)cc4c(N5CCC[C@]6(CCS(=O)(=O)C6)C5)nc(OC[C@@]56CCCN5C[C@H](F)C6)nc4c3F)c12 (single isomer, unassigned) [Example 94]	
5 nM	28 nM	7 nM		CCc1c(F)ccc2cc(O)cc(-c3c(F)cc4c(N5CCC[C@]6(COC(=O)O6)C5)nc(OC[C@@]56CCCN5C[C@H](F)C6)nc4c3F)c12 (single isomer, unassigned) [Example 93]	
6 nM	13 nM	15 nM		CCc1c(F)ccc2cc(O)cc(-c3ccc4c(N5CCC[C@]6(CNC(=O)O6)C5)nc(OC[C@@]56CCCN5C[C@H](F)C6)nc4c3F)c12 (single isomer, unassigned) [Example 88]	
2 nM		1 nM	3 nM	C#Cc1c(F)ccc2cc(O)cc(-c3c(F)cc4c(N5CCC[C@@](C)(O)C5)nc(OC[C@@]56CCCN5C[C@H](F)C6)nc4c3F)c12 (single isomer, unassigned) [Example 14]	
